Test results reported in US10894784B2, “Heteroarylbenzimidazole compounds” (BAYER PHARMA AKTIENGESELLSCHAFT, priority 2015, dated 2021).

Molecular target: TBK1 (Homo sapiens (Human), UniProt Q9UHD2)
Experiment: TBK1 low ATP kinase assay (in vitro assay 1)
Assay type: biochemical
Settings: in vitro assay 1, read-out: TBK1 low ATP kinase assay IC50

Sequence of TBK1 (Q9UHD2 whole entry): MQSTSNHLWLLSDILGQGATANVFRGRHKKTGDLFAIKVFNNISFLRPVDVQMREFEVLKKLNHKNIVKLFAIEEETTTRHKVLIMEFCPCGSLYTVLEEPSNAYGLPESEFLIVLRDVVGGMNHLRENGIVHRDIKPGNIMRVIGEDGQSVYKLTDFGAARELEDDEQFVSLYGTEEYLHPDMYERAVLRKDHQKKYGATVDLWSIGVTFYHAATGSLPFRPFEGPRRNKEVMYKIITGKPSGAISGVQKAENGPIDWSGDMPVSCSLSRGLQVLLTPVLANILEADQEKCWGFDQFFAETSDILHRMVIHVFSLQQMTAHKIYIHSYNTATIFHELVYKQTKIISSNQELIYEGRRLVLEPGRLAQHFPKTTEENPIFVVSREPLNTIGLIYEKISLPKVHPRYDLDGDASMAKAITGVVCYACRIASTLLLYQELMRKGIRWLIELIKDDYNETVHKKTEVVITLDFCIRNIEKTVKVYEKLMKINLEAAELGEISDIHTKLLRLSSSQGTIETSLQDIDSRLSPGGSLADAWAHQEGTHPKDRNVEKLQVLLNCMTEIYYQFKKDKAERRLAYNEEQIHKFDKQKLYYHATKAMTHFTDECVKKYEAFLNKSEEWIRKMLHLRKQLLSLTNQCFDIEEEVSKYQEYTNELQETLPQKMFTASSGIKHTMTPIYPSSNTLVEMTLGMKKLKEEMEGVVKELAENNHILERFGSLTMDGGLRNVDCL

SMILES	IC50 [nM]
Cc1nccc(-c2ccc3nc(Nc4cc(CN5CCN(C(=O)C6CC6)CC5)ccn4)[nH]c3c2)n1 [Example 24.01.03, cyclopropyl{4-[(2-{[6-(2-methylpyrimidin-4-yl)-1H-benzimidazol-2-yl]amino}pyridin-4-yl)methyl]piperazin-1-yl}methanone]	43.2
Cc1nccc(-c2ccc3nc(Nc4cc(CN5CCN(C(=O)CC6CC6)CC5)ccn4)[nH]c3c2)n1 [Example 24.01.04, 2-cyclopropyl-1-{4-[(2-{[6-(2-methylpyrimidin-4-yl)-1H-benzimidazol-2-yl]amino}pyridin-4-yl)methyl]piperazin-1-yl}ethanone]	44.4
Cc1cc(CN2CCN(C(=O)C3CC3)CC2)cc(Nc2nc3ccc(-c4ccnc(C)n4)cc3[nH]2)n1 [Example 24.02.01, cyclopropyl{4-[(2-methyl-6-{[6-(2-methylpyrimidin-4-yl)-1H-benzimidazol-2-yl]amino}pyridin-4-yl)methyl]piperazin-1-yl}methanone]	45.8
Cc1cc(CN2CCN(C(=O)CC(F)(F)F)CC2)cc(Nc2nc3ccc(-c4ccnc(C)n4)cc3[nH]2)n1 [Example 24.02.02, 3,3,3-trifluoro-1-{4-[(2-methyl-6-{[6-(2-methylpyrimidin-4-yl)-1H-benzimidazol-2-yl]amino}pyridin-4-yl)methyl]piperazin-1-yl}propan-1-one]	63.1
Cc1nccc(-c2ccc3nc(Nc4cc(CN5CCN(C(=O)C6CC6)CC5)cc(C(F)(F)F)n4)[nH]c3c2)n1 [Example 24.03.01, cyclopropyl(4-{[2-{[6-(2-methylpyrimidin-4-yl)-1H-benzimidazol-2-yl]amino}-6-(trifluoromethyl)pyridin-4-yl]methyl}piperazin-1-yl)methanone]	478
COc1nccc(-c2ccc3nc(Nc4cc(CN5CCN(C(=O)OC(C)(C)C)CC5)ccn4)[nH]c3c2)n1 [Example 25.01.01, tert-butyl 4-[(2-{[6-(2-methoxypyrimidin-4-yl)-1H-benzimidazol-2-yl]amino}pyridin-4-yl)methyl]piperazine-1-carboxylate]	174
COc1nccc(-c2ccc3nc(Nc4cc(CN5CCN(C(=O)C6CCC6)CC5)ccn4)[nH]c3c2)n1 [Example 25.01.02, cyclobutyl{4-[(2-{[6-(2-methoxypyrimidin-4-yl)-1H-benzimidazol-2-yl]amino}pyridin-4-yl)methyl]piperazin-1-yl}methanone]	218
COc1nccc(-c2ccc3nc(Nc4cc(CN5CCN(C(=O)CC6CC6)CC5)ccn4)[nH]c3c2)n1 [Example 25.01.03, 2-cyclopropyl-1-{4-[(2-{[6-(2-methoxypyrimidin-4-yl)-1H-benzimidazol-2-yl]amino}pyridin-4-yl)methyl]piperazin-1-yl}ethanone]	96.7
COc1nccc(-c2ccc3nc(Nc4cc(CN5CCN(C(=O)CC(F)(F)F)CC5)ccn4)[nH]c3c2)n1 [Example 25.01.04, 3,3,3-trifluoro-1-{4-[(2-{[6-(2-methoxypyrimidin-4-yl)-1H-benzimidazol-2-yl]amino}pyridin-4-yl)methyl]piperazin-1-yl}propan-1-one]	79
COc1nccc(-c2ccc3nc(Nc4cc(CN5CCN(C(=O)C6CC6)CC5)ccn4)[nH]c3c2)n1 [Example 25.01.05, cyclopropyl{4-[(2-{[6-(2-methoxypyrimidin-4-yl)-1H-benzimidazol-2-yl]amino}pyridin-4-yl)methyl]piperazin-1-yl}methanone]	64.5
COc1nccc(-c2ccc3nc(Nc4cc(CN5CCN(C(=O)C6CC6)CC5)cc(C(F)(F)F)n4)[nH]c3c2)n1 [Example 25.02.01, cyclopropyl(4-{[2-{[6-(2-methoxypyrimidin-4-yl)-1H-benzimidazol-2-yl]amino}-6-(trifluoromethyl)pyridin-4-yl]methyl}piperazin-1-yl)methanone]	346
CCOc1nccc(-c2ccc3nc(Nc4cc(CN5CCN(C(=O)OC(C)(C)C)CC5)ccn4)[nH]c3c2)n1 [Example 26.01.01, tert-butyl 4-[(2-{[6-(2-ethoxypyrimidin-4-yl)-1H-benzimidazol-2-yl]amino}pyridin-4-yl)methyl]piperazine-1-carboxylate]	35.7
CCOc1nccc(-c2ccc3nc(Nc4cc(CN5CCN(C(=O)C6CC6)CC5)ccn4)[nH]c3c2)n1 [Example 26.01.02, cyclopropyl{4-[(2-{[6-(2-ethoxypyrimidin-4-yl)-1H-benzimidazol-2-yl]amino}pyridin-4-yl)methyl]piperazin-1-yl}methanone]	8.58
CCOc1nccc(-c2ccc3nc(Nc4cc(CN5CCN(C(=O)CC(F)(F)F)CC5)ccn4)[nH]c3c2)n1 [Example 26.01.03, 1-{4-[(2-{[6-(2-ethoxypyrimidin-4-yl)-1H-benzimidazol-2-yl]amino}pyridin-4-yl)methyl]piperazin-1-yl}-3,3,3-trifluoropropan-1-one]	13
CCOc1nccc(-c2ccc3nc(Nc4cc(CN5CCN(C(=O)C6CCC6)CC5)ccn4)[nH]c3c2)n1 [Example 26.01.04, cyclobutyl{4-[(2-{[6-(2-ethoxypyrimidin-4-yl)-1H-benzimidazol-2-yl]amino}pyridin-4-yl)methyl]piperazin-1-yl}methanone]	11.6
CCOc1nccc(-c2ccc3nc(Nc4cc(CN5CCN(C(=O)CC6CC6)CC5)ccn4)[nH]c3c2)n1 [Example 26.01.05, 2-cyclopropyl-1-{4-[(2-{[6-(2-ethoxypyrimidin-4-yl)-1H-benzimidazol-2-yl]amino}pyridin-4-yl)methyl]piperazin-1-yl}ethanone]	14.1
O=C(C1CC1)N1CCN(Cc2ccnc(Nc3nc4ccc(-c5ccnc(C(F)(F)F)n5)cc4[nH]3)c2)CC1 [Example 27.01, cyclopropyl(4-{[2-({6-[2-(trifluoromethyl)pyrimidin-4-yl]-1H-benzimidazol-2-yl}amino)pyridin-4-yl]methyl}piperazin-1-yl)methanone]	164
O=C(C1CCC1)N1CCN(Cc2ccnc(Nc3nc4ccc(-c5ccnc(C(F)(F)F)n5)cc4[nH]3)c2)CC1 [Example 27.02, cyclobutyl(4-{[2-({6-[2-(trifluoromethyl)pyrimidin-4-yl]-1H-benzimidazol-2-yl}amino)pyridin-4-yl]methyl}piperazin-1-yl)methanone]	220
O=C(CC1CC1)N1CCN(Cc2ccnc(Nc3nc4ccc(-c5ccnc(C(F)(F)F)n5)cc4[nH]3)c2)CC1 [Example 27.03, 2-cyclopropyl-1-(4-{[2-({6-[2-(trifluoromethyl)pyrimidin-4-yl]-1H-benzimidazol-2-yl}amino)pyridin-4-yl]methyl}piperazin-1-yl)ethanone]	203
O=C(CC(F)(F)F)N1CCN(Cc2ccnc(Nc3nc4ccc(-c5ccnc(C(F)(F)F)n5)cc4[nH]3)c2)CC1 [Example 27.04, 3,3,3-trifluoro-1-(4-{[2-({6-[2-(trifluoromethyl)pyrimidin-4-yl]-1H-benzimidazol-2-yl}amino)pyridin-4-yl]methyl}piperazin-1-yl)propan-1-one]	197
CCc1nccc(-c2ccc3nc(Nc4cc(CN5CCN(C(=O)OC(C)(C)C)CC5)ccn4)[nH]c3c2)n1 [Example 28.01, tert-butyl 4-[(2-{[6-(2-ethylpyrimidin-4-yl)-1H-benzimidazol-2-yl]amino}pyridin-4-yl)methyl]piperazine-1-carboxylate]	111
Cc1cc(-c2ccc3nc(Nc4cc(CN5CCN(C(=O)C6CCC6)CC5)ccn4)[nH]c3c2)ncn1 [Example 30.01.02, cyclobutyl{4-[(2-{[6-(6-methylpyrimidin-4-yl)-1H-benzimidazol-2-yl]amino}pyridin-4-yl)methyl]piperazin-1-yl}methanone]	18.5
Cc1cc(-c2ccc3nc(Nc4cc(CN5CCN(C(=O)CC6CC6)CC5)ccn4)[nH]c3c2)ncn1 [Example 30.01.03, 2-cyclopropyl-1-{4-[(2-{[6-(6-methylpyrimidin-4-yl)-1H-benzimidazol-2-yl]amino}pyridin-4-yl)methyl]piperazin-1-yl}ethanone]	16.9
Cc1cc(-c2ccc3nc(Nc4cc(CN5CCN(C(=O)C6CC6)CC5)ccn4)[nH]c3c2)ncn1 [Example 30.01.04, cyclopropyl{4-[(2-{[6-(6-methylpyrimidin-4-yl)-1H-benzimidazol-2-yl]amino}pyridin-4-yl)methyl]piperazin-1-yl}methanone]	12.3
Cc1cc(-c2ccc3nc(Nc4cc(CN5CCN(C(=O)CC(F)(F)F)CC5)ccn4)[nH]c3c2)nc(C)n1 [Example 31.01, 1-{4-[(2-{[6-(2,6-dimethylpyrimidin-4-yl)-1H-benzimidazol-2-yl]amino}pyridin-4-yl)methyl]piperazin-1-yl}-3,3,3-trifluoropropan-1-one]	86.8
Cc1cc(-c2ccc3nc(Nc4cc(CN5CCN(C(=O)C6CC6)CC5)ccn4)[nH]c3c2)nc(C)n1 [Example 31.02, cyclopropyl{4-[(2-{[6-(2,6-dimethylpyrimidin-4-yl)-1H-benzimidazol-2-yl]amino}pyridin-4-yl)methyl]piperazin-1-yl}methanone]	77
Cc1ncnc(-c2ccc3nc(Nc4cc(CN5CCN(C(=O)C6CC6)CC5)ccn4)[nH]c3c2)c1C [Example 32.01, cyclopropyl{4-[(2-{[6-(5,6-dimethylpyrimidin-4-yl)-1H-benzimidazol-2-yl]amino}pyridin-4-yl)methyl]piperazin-1-yl}methanone]	951
Cc1ncnc(-c2ccc3nc(Nc4cc(CN5CCN(C(=O)CC(F)(F)F)CC5)ccn4)[nH]c3c2)c1C [Example 32.02, 1-{4-[(2-{[6-(5,6-dimethylpyrimidin-4-yl)-1H-benzimidazol-2-yl]amino}pyridin-4-yl)methyl]piperazin-1-yl}-3,3,3-trifluoropropan-1-one]	1170
CC(=O)N1CCN(Cc2ccnc(Nc3nc4ccc(-c5ncnc(C)c5C)cc4[nH]3)c2)CC1 [Example 32.03, 1-{4-[(2-{[6-(5,6-dimethylpyrimidin-4-yl)-1H-benzimidazol-2-yl]amino}pyridin-4-yl)methyl]piperazin-1-yl}ethanone]	5190
Cc1ncc(C)c(-c2ccc3nc(Nc4cc(CN5CCN(C(=O)OC(C)(C)C)CC5)ccn4)[nH]c3c2)n1 [Example 33.01, tert-butyl 4-[(2-{[6-(2,5-dimethylpyrimidin-4-yl)-1H-benzimidazol-2-yl]amino}pyridin-4-yl)methyl]piperazine-1-carboxylate]	3540
